{
  "source": "the RepoRT retention time repository",
  "data": [
    {"test": "RP, Advanced Chromatography Technologies ACE C18, 50 × 2.1 mm, 3 µm; A: water + 10 mM ammonium acetate; B: acetonitrile; gradient (min/%B) 0/5 1/5 21/95", "settings": "stereoisomer not certain", "units": {"LC retention time": "min"}, "values": [
      {"smiles": "Cc1ccc(O)c(-n2nc3ccccc3n2)c1", "note": "[2-(benzotriazol-2-yl)-4-methylphenol]", "LC retention time": 13.3},
      {"smiles": "CC(C)(c1ccccc1)c1cc(-n2nc3ccccc3n2)c(O)c(C(C)(C)c2ccccc2)c1", "LC retention time": 19.4},
      {"smiles": "Nc1c(Cl)cc([N+](=O)[O-])cc1Cl", "note": "[2,6-dichloro-4-nitroaniline]", "LC retention time": 9.41},
      {"smiles": "Cc1cc2n[nH]nc2cc1C", "note": "[5-6-Dimethyl-2H-benzotriazole]", "LC retention time": 5.73},
      {"smiles": "CSc1nc2ccccc2s1", "note": "[2-methylthiobenzothiazole]", "LC retention time": 9.58},
      {"smiles": "c1ccc2sc(SSc3nc4ccccc4s3)nc2c1", "note": "[2-2'-dithiobisbenzothiazole]", "LC retention time": 14.6},
      {"smiles": "Nc1c(Cl)cc([N+](=O)[O-])cc1[N+](=O)[O-]", "note": "[6-chloro-2-4-dinitroaniline]", "LC retention time": 8.9},
      {"smiles": "CCC(C)(C)c1cc(-n2nc3ccccc3n2)c(O)c(C(C)(C)CC)c1", "note": "[2-(2H-benzotriazol-2-yl)-4-6-di-tert-pentylphenol]", "LC retention time": 20.8},
      {"smiles": "Cc1ccc2n[nH]nc2c1", "note": "[5-Methyl-1H-benzotriazole]", "LC retention time": 4.65},
      {"smiles": "CC(C)COC(=O)c1ccccc1C(=O)OCC(C)C", "note": "[Diisobutyl phthalate]", "LC retention time": 14},
      {"smiles": "c1ccc2ncccc2c1", "note": "[Quinoline]", "LC retention time": 6.1},
      {"smiles": "c1ccc2sc(SNC3CCCCC3)nc2c1", "note": "[N-cyclohexyl-2-benzothiazolesulphenamide]", "LC retention time": 13.7},
      {"smiles": "CC(C)(C)c1cc(-n2nc3ccc(Cl)cc3n2)c(O)c(C(C)(C)C)c1", "note": "[2-4-di-tert-butyl-6-(5-chlorobenzotriazol-2-yl)phenol]", "LC retention time": 20.7},
      {"smiles": "Nc1ccc([N+](=O)[O-])cc1[N+](=O)[O-]", "note": "[2-4-dinitroaniline]", "LC retention time": 7.02},
      {"smiles": "c1ccc2n[nH]nc2c1", "note": "[1-H-benzotriazole]", "LC retention time": 3.14},
      {"smiles": "Nc1c(Br)cc([N+](=O)[O-])cc1[N+](=O)[O-]", "note": "[2-bromo-4,6-dinitroaniline]", "LC retention time": 8.73},
      {"smiles": "c1ccc2scnc2c1", "note": "[Benzothiazole]", "LC retention time": 5.38}
    ]}
  ]
}
